Measured values reported in patent publication US20220218827A1, “DELIVERY OF THERAPEUTIC COMPOUNDS WITH IRON OXIDE NANOPARTICLES” (Memorial Sloan Kettering Cancer Center, priority 2012, published 2022).

What was measured:
PC3 tumors = test: Tumor growth in nude mice bearing PC3 tumors; type: in vivo; conditions: versus control animals
Protocol: Nude, male mice (n=10) bearing PC3 tumors on their flanks were treated on day 0, day 2 and day 6 with 100 μι, either doxorubicin alone or doxorubi tin-loaded Feraheme®, both at a final doxorubicin concentration of 0.28 mM. Changes in tumor size were evaluated with a microcaliper, and at the end of the 8-day study the mice were euthanized, according to the Institutional Animal Care and Use Committee guidelines. • Data Analysis.
Specifically, the mice were treated with equal concentrations of the drug on day 0, 2 and 6, and tumor growth was determined with microcalipers. Control animals were treated with 100 μι, of 10% DMSO-containing PBS to match the DMSO content of the free doxorubicin injection, since the drug was dissolved in DMSO and diluted to the desired concentration in PBS. On day 6 and 8, the tumors were measured, and the change in tumor growth was determined by comparing the volume of tumors from treated animals with those of control ones.

[1] = tested on: human prostate adenocarcinoma cells (LNCaP); test: LNCaP cell viability, Alamar Blue method; type: cell-based; conditions: 48 h, [Doxorubicin]final=7.5 μM, free or intercalated drug, read-out: reduction in cell viability
Protocol: Cell viability and in vivo studies. LNCaP cells were seeded on black-walled, clear bottom 96-well plates at a cell density of 10,000 cells per well, supplemented with 100 iL 10% FBS-containing RPMI medium. […] Controls included cells incubated with unloaded nanoparticles or DMSO, corresponding to the free drug's final solvent concentration. Subsequently, the old medium was aspirated, and cell viability was assessed via the Alamar Blue method (Invitrogen). Briefly, the cells were supplemented with 10%-alamar-blue-containing medium (10% FBS-containing RPMI), followed by 3 h incubation in a humidified incubator (37° C., 5% CO2) and recording of fluorescence emission (λ ? =565 nm) with the SpectraMax M5 plate reader. […] Experiments were performed in triplicate unless otherwise stated, with the results are presented as mean±SEM.
Cell viability and in vivo studies. […] Subsequently, the old medium was aspirated, and cell viability was assessed via the Alamar Blue method (Invitrogen). Briefly, the cells were supplemented with 10%-alamar-blue-containing medium (10% FBS-containing RPMI), followed by 3 h incubation in a humidified incubator (37° C., 5% CO2) and recording of fluorescence emission ? ran, λειλ=585 nm) with the SpectraMax M5 plate reader.

## COc1cccc2c1C(=O)c1c(O)c3c(c(O)c1C2=O)C[C@@](O)(C(=O)CO)C[C@@H]3O[C@H]1C[C@H](N)[C@H](O)[C@H](C)O1 [doxorubicin]
PC3 tumors; iv day 0, 2 and 6, measured day 8, 0.28 mM doxorubicin
  suppression of tumor growth after three injections: 34%
PC3 tumors; iv day 0 and 2, measured day 6, 100 μL of 0.28 mM doxorubicin
  tumor regression after two injections: some tumor growth
[1]
  cytotoxicity at […]: 60%
